Results taken from US20120157401A1, “METHODS FOR TREATING NEUROFIBROMATOSIS” (PTC Therapeutics, Inc., priority 2009, published 2012).
Values joined by “and” are separate entries in the source; they are usually repeats but may differ in a detail not shown here. Equal entries are not always repeated. Where two headings read alike, the source gives them in different places.

How the values were obtained:
[1] = tested on: soluble VEGF121 and VEGF165 isoforms; assay: ELISA of soluble VEGF production in nontransformed keratinocytes during hypoxia or normoxia; format: cell-based, human; details: 72 hours
Description: Experimental Design. Nontransformed normal human keratinocyte cell cultures were established under normoxic conditions (21% oxygen). […] At the completion of treatment, cells were assessed for viability with an ATP assay and conditioned media were evaluated for VEGF protein levels by ELISA (as described in Section 9.1.1.1).

Human VEGF-A = assay: HT1080 xenograft selectivity studies: intratumoral VEGF-A ELISA; format: in vivo; details: Study 5, 15-days, treatment initiated at ~600 mm^3
Description: Experimental Design. […] All of these factors can be produced at tumor sites, and all may support tumor growth and metastases. See Yoon et al., Circ Res. 2003, 93(2):87 90; Ferrara et al., Nat. Rev. Drug Discov. […] Biophys. Acta 2004,1654(1):79 94; Saharinen et al., Trends Immunol. 2004, 25(7):387 95. There is also evidence that VEGF-A may stimulate production of P1GF by a post transcriptional mechanism. See Yao et al., FEBS Lett. 2005, 579(5):1227 34. VEGF-B was not assessed. […] See Vagner at al., Mol. Cell. Biol. 1995, 15(1):35 44; Hellen et al., Genes Dev. 2001, 15(13):1593 612. The survivin protein was similarly evaluated because the survivin mRNA has an IRES. PDGF was assessed because this protein has angiogenic activity and its mRNA contains an IRES. See Sella et al., Mol. Cell. Biol. 1999, 19(8):5429 40; Hellen et al., supra. Endostatin was included because antiangiogenic treatment in vivo has shown that compensatory […] in endogenous angiogenic inhibitors such as endostatin, thrombospondin, and angiostatin, results in a more pro angiogenic environment. See Sim, Angiogenesis, 1998, 2(1):37-48.
In all of these experiments, HT1080 cells (5×10^6 cells/mouse) were implanted subcutaneously in male athymic nude mice. When tumors had become established, mice were divided into groups (10 mice/group). […] Tumor size was measured by calipers at the beginning and end of treatment. […]

[2] = tested on: human VEGF121 and VEGF165; assay: HT1080 xenograft dose response: intratumoral and pathologic plasma human VEGF ELISA; format: in vivo
Description: Experimental Study Design. HT1080 cells (5×10^6 cells/mouse) were implanted subcutaneously in male athymic nude mice.
Tumor size was measured using calipers at periodic intervals during the study (data shown in Section 9.2.2). […] The study was ended after 18 days, when the vehicle treated tumors reached a mean volume of ˜1755 mm^3. […] Mice were sacrificed, and excised tumors were homogenized in buffer containing protease inhibitors. Both terminal intratumoral and pathologic plasma human VEGF levels were measured using an ELISA that recognizes human VEGF121 and VEGF165 (as described in Section 9.1.1.1). Intratumoral VEGF levels were normalized to the total tumor protein concentration, while pathologic plasma human VEGF levels were expressed in pg/mL of plasma.

[3] = Trough plasma concentrations of Compound #10 in HT1080 xenograft mice (HPLC-MS/MS); format: in vivo; details: athymic nude, mouse, oral, 1 mg/kg BID
[4] = Respiratory safety pharmacology in awake telemeterized dogs; format: in vivo, beagle dogs; details: single oral doses of 30, 60, and 120 mg/kg, male dogs
[5] = In vitro plasma protein binding of 14C-radiolabeled Compound #10; format: in vitro ADME, mice, rats, dogs, monkeys, and humans; details: mouse, rat, dog, monkey, human, all species, 0.05 to 50 μg/mL, read-out: Plasma protein binding, overall mean
[6] = tested on: Chinese hamster ovary (CHO) cells; assay: Chromosome aberration study in CHO cells; format: cell-based; details: with and without metabolic activation
Description: Genotoxicity was assessed in a battery of in vitro and in vivo studies that included a bacterial reverse mutation study, a chromosome aberration study in Chinese hamster ovary (CHO) cells, and a micronucleus study in rats by the oral route. The in vitro studies were performed in the presence and absence of an exogenous metabolic activation system.

[7] = Phase 1 multiple-dose study in healthy volunteers: pharmacokinetics (Table 28); format: in vivo, human; details: for concentration at 24 h / Tmax: human, plasma, oral; for concentration at 24 h: read-out: C24 h
Description: Methods. The trial was a Phase 1, randomized, escalating multiple dose, single center study conducted in 2 stages.
Capsules contained 2 mg or 20 mg of active substance.
Capsules contained 20 mg or 25 mg of active substance.
Noncompartmental methods were used to compute Tmax, Cmax, and AUC. Dose proportionality and sex effect were evaluated using ANOVA on log transformed PK parameters using dose, sex, and dose by sex as fixed factors.

[8] = all Compound #10 dose groups (0.3-10 mg/kg, oral, 18 days)
[9] = Stage 1, 0.3 mg/kg BID, Day 1, mean
[10] = Stage 1, 0.3 mg/kg BID, Day 7, mean
[11] = Stage 1, 0.6 mg/kg BID, Day 1, mean
[12] = Stage 1, 0.6 mg/kg BID, Day 7, mean
[13] = healthy volunteers, all dose levels

Compound: COc1ccc(C2c3[nH]c4ccc(Cl)cc4c3CCN2C(=O)Oc2ccc(Cl)cc2)cc1 (racemic) [Compound #10]
- Maximal decrease in VEGF concentration in conditioned media ([1]; hypoxic (1% oxygen)): 57%
- Mean VEGF concentration in conditioned media at maximal decrease ([1]; hypoxic (1% oxygen)): 606 pg/mL
- Decrease in VEGF concentration in conditioned media ([1]; normoxic): 21%
- Mean VEGF concentration in conditioned media in the presence of compound ([1]; normoxic): 192 pg/mL
- Decrease in intratumoral VEGF levels (Human VEGF-A): 78%
- Reduction in tumor and pathologic plasma human VEGF concentrations ([2]; 0.3 mg/kg BID): partial reductions
- Pathologic human VEGF levels in plasma [2, 8]: significantly suppressed
- Pathologic human VEGF levels in tumors [2, 8]: significantly suppressed
- Reduction in tumor and pathologic plasma human VEGF concentrations ([2]; dose levels of ≧1 mg/kg BID): essentially maximal
- concentration at 16 h ([3]; 16 hours after the first day of dosing (n=3), read-out: Mean trough plasma concentration): 130 ng/mL and 280 nM
- concentration at 16 h ([3]; 16 hours after the last dose on Day 18 (n=4), read-out: Steady state mean trough plasma concentration): 820 ng/mL
- Changes in respiratory rate, core body temperature, arterial blood gases, arterial pH, or arterial bicarbonate [4]: no dose dependent or biologically significant changes
- fraction unbound [5]: ≤ 0.005
- Genotoxic effects, chromosome aberration in CHO cells [6]: no evidence of genotoxic effects
- AUC0-24 [7, 9]: 4310 ng·h/mL
- Cmax (after PM dose) [7, 9]: 480 ng/mL
- Dose-normalized AUC0-24 [7, 9]: 7.2 µg·h/mL/mg/kg
- Dose-normalized Cmax [7, 9]: 0.79 µg/mL/mg/kg
- Tmax (after PM dose) [7, 9]: 3.16 h
- AUC0-24 [7, 10]: 8440 ng·h/mL
- Cmax (after PM dose) [7, 10]: 590 ng/mL
- Dose-normalized AUC0-24 [7, 10]: 14.1 µg·h/mL/mg/kg
- Dose-normalized Cmax [7, 10]: 0.99 µg/mL/mg/kg
- AUC0-24 [7, 11]: 10100 ng·h/mL
- Cmax (after PM dose) [7, 11]: 970 ng/mL
- Dose-normalized AUC0-24 [7, 11]: 8.4 µg·h/mL/mg/kg
- Dose-normalized Cmax [7, 11]: 0.81 µg/mL/mg/kg
- Tmax (after PM dose) [7, 11]: 3.17 h
- AUC0-24 [7, 12]: 18600 ng·h/mL
- Cmax (after PM dose) [7, 12]: 1160 ng/mL
- Dose-normalized AUC0-24 [7, 12]: 15.5 µg·h/mL/mg/kg
- Dose-normalized Cmax [7, 12]: 0.97 µg/mL/mg/kg
- Dose-normalized AUC0-24 ([7]; Stage 1, […] BID, Day 1, mean): 7.5 µg·h/mL/mg/kg
- Dose-normalized Cmax ([7]; Stage 1, […] BID, Day 1, mean): 0.82 µg/mL/mg/kg
- Cmax (after PM dose) ([7]; Stage 1, […] BID, Day 7, mean): 2470 ng/mL
- Dose-normalized AUC0-24 ([7]; Stage 1, […] BID, Day 7, mean): 13.7 µg·h/mL/mg/kg
- Dose-normalized Cmax ([7]; Stage 1, […] BID, Day 7, mean): 1.03 µg/mL/mg/kg
- Dose-normalized AUC0-24 ([7]; Stage 2, […] TID, Day 1, mean): 7.7 µg·h/mL/mg/kg
- Dose-normalized Cmax ([7]; Stage 2, […] TID, Day 1, mean): 0.51 µg/mL/mg/kg
- Tmax (after PM dose) ([7]; Stage 2, […] TID, Day 1, mean): 2.50 h
- Cmax (after PM dose) ([7]; Stage 2, […] TID, Day 7, mean): 4650 ng/mL
- Dose-normalized AUC0-24 ([7]; Stage 2, […] TID, Day 7, mean): 16.4 µg·h/mL/mg/kg
- Dose-normalized Cmax ([7]; Stage 2, […] TID, Day 7, mean): 0.98 µg/mL/mg/kg
- concentration at 24 h ([7]; both sexes, 0.3 mg/kg, Stage 1, 0.3 mg/kg BID, Day 1, mean): 94 ng/mL
- concentration at 24 h ([7]; both sexes, 0.3 mg/kg, Stage 1, 0.3 mg/kg BID, Day 7, mean): 210 ng/mL
- concentration at 24 h ([7]; both sexes, 0.6 mg/kg, Stage 1, 0.6 mg/kg BID, Day 1, mean): 260 ng/mL
- concentration at 24 h ([7]; both sexes, 0.6 mg/kg, Stage 1, 0.6 mg/kg BID, Day 7, mean): 540 ng/mL
- Tmax ([7]; both sexes, healthy volunteers, Stage 1 and Stage 2, read-out: Mean Tmax): ~3 h
- Tmax ([7]; both, Stage 1, 1.2 mg/kg BID, Day 1, mean, read-out: Tmax (after PM dose)): 3 h
- Oral bioavailability ([7]; healthy volunteers): orally bioavailable
- Differences in Cmax or AUC0-24 between males and females ([7]; healthy volunteers, ANOVA): no significant differences
- Accumulation (Day 1 to Day 7) when dosed continuously [7, 13]: ~2 fold
- Target trough plasma concentration (~0.1 to […]) [7, 13]: achieved and maintained
- Lag time until appearance in plasma ([7]; healthy volunteers, oral capsules): ~30 min
